In series [1] the test system is MIA PaCa-2. The series is described as follows: Growth inhibition of human MIA PaCa-2 cells incubated for 72 hrs by MTT assay. It counts as functional. On the technique in general: Tetrazolium dyes change colour on reduction, which living cells bring about.
The test system of series [2] is HT-29. The series is described as follows: Growth inhibition of human HT-29 cells incubated for 72 hrs by MTT assay. It counts as functional.
Series [3] concerns MCF7. The series is described as follows: Growth inhibition of human MCF7 cells incubated for 72 hrs by MTT assay. It counts as functional.
Series [4] relates to A2780. The series is described as follows: Growth inhibition of human A2780 cells incubated for 72 hrs by MTT assay. It counts as functional.
Series [5] relates to BE(2)-C. The series is described as follows: Growth inhibition of human BE2C cells incubated for 72 hrs by MTT assay. It counts as functional.
Series [6] can be described thus: Growth inhibition of human MCF-10A cells incubated for 72 hrs by MTT assay. It counts as toxicity, cell-based.
Series [7] relates to ASPC1. The series is described as follows: Growth inhibition of human ASPC1 cells incubated for 72 hrs by MTT assay. It counts as functional.
Series [8] relates to BXPC-3. The series is described as follows: Growth inhibition of human BXPC-3 cells incubated for 72 hrs by MTT assay. It counts as functional.
In series [9] the test system is Capan-2. The series is described as follows: Growth inhibition of human Capan-2 cells incubated for 72 hrs by MTT assay. It counts as functional.
Series [10] has as its system HPAC. The series is described as follows: Growth inhibition of human HPAC cells incubated for 72 hrs by MTT assay. It counts as functional.
Series [11] concerns PANC-1. The series is described as follows: Growth inhibition of human PANC-1 cells incubated for 72 hrs by MTT assay. It counts as functional.

On to `O=S(=O)(NCCCNCc1ccc(Cl)cc1)c1cc(C(F)(F)F)cc(C(F)(F)F)c1`, for which the GI50 (as a rule, the concentration giving 50% growth inhibition) was 2.8 µM in [1]; 2.8 µM in series [2]; 2.4 µM in series [3]; 1.8 µM in series [4]; 2.9 µM in [5]; 3 µM in series [7]. Also, the GI50 in [8] turned out to be 1.6 µM; in series [9] it was 2.7 µM; in [10] it was 2.8 µM; in series [11], 4.9 µM. The same compound gave a GI50 at 72 h in [6] of 2.3 µM.
In turn, `COc1ccc(S(=O)(=O)NCCCCCCNCc2ccc(Br)cc2)cc1` had a GI50 in series [1] of 13 µM.
Consider `O=S(=O)(NCCCNCc1cccc2ccccc12)c1cc(C(F)(F)F)cc(C(F)(F)F)c1`, for which the GI50 worked out at 2.8 µM in series [1]; 2.6 µM in series [2]; 1.4 µM in [3]; 3.1 µM in [4]; 2.7 µM in series [5]; 21 µM in [7]. In addition, the GI50 in series [8] is 2.7 µM; in series [9], 2.7 µM; in series [10] it was 2.4 µM; in [11], 2.7 µM. In series [6], this compound returned a GI50 at 72 h of 3.2 µM.
For the compound `O=S(=O)(NCCNCc1cccc2ccccc12)c1cc(C(F)(F)F)cc(C(F)(F)F)c1`, the GI50 in series [1] was 26 µM; in series [2] it was 16 µM; in series [3], 18 µM; in series [4] it was 21 µM; in [5] it was 19 µM; in series [7], 22 µM. For the same compound, the GI50 in series [8] was 23 µM; in series [9], 21 µM; in series [10], 18 µM; in series [11] it was 24 µM. In [6], this compound gave a GI50 at 72 h of 22 µM.
In turn, `CCCCc1ccc(S(=O)(=O)NCCCCCCNCc2ccc(Br)cc2)cc1` gave a GI50 in series [1] of 5.7 µM.
Turning to `O=S(=O)(NCCCCCCNCc1ccc(Br)cc1)c1ccc2c(c1)OCC2`, in series [1], growth was halved (GI50) at 13 µM.
Still for that read-out and setting: the same measure for `Cc1ccc(C)c(S(=O)(=O)NCCCCCCNCc2ccc(Br)cc2)c1`: 12 µM; for `O=[N+]([O-])c1ccccc1S(=O)(=O)NCCCCCCNCc1ccc(Br)cc1`: 11.7 µM.
Regarding `O=S(=O)(NCCCNCc1cccc(Cl)c1)c1cc(C(F)(F)F)cc(C(F)(F)F)c1`, the GI50 in [1] amounted to 4.4 µM; in series [2], 14 µM; in [3], 2.6 µM; in [4], 2.2 µM; in [5] it was 6.9 µM; in [7] it was 5.9 µM. For the same compound, the GI50 came out at 3.8 µM in series [8], 8 µM in series [9], 2.7 µM in series [10] and 12 µM in series [11]. Moreover, in series [6], it took 7 µM to inhibit growth by half (GI50 at 72 h).
As for `CN(CCCNS(=O)(=O)c1cc(C(F)(F)F)cc(C(F)(F)F)c1)Cc1ccccc1`, the GI50 in series [1] was 33 µM; in [2], over 50 µM; in series [3] it was 16 µM; in series [4] it was 28 µM; in [5], 28 µM; in series [7], 51 µM. For the same compound, the GI50 in series [8] was 39 µM; in series [9], 46 µM; in [10], 30 µM; in series [11] it was over 50 µM. The GI50 at 72 h in [6] amounted to 26 µM.
As to `O=S(=O)(NCCCNCc1ccccc1Cl)c1cc(C(F)(F)F)cc(C(F)(F)F)c1`, the 50% growth inhibitory concentration (GI50) amounted to 11 µM in series [1]; 20 µM in [2]; 8.8 µM in series [3]; 9.3 µM in [4]; 15 µM in series [5]; 13 µM in [7]. The GI50 in series [8] came to 11 µM; in [9], 13 µM; in [10], 10 µM; in series [11] it was 15 µM. The GI50 at 72 h in [6] was 11 µM.
For `O=S(=O)(NCCCCCCNCc1ccc(Br)cc1)c1cc(Cl)cc(Cl)c1`, halving of growth in series [1] (GI50) required 12 µM.
The same measure, in the same setting: the same measure for `O=S(=O)(NCCCCCCNCc1ccc(Br)cc1)c1c(Cl)cc(C(F)(F)F)cc1Cl`: 5.67 µM.
In [1], `O=S(=O)(NCCCCCCNCc1ccc(Br)cc1)c1ccc(C(F)(F)F)cc1` registered a GI50 of 3.83 µM.
On the same count and under the same terms, as for `CC(C)(C)c1ccc(S(=O)(=O)NCCCCCCNCc2ccc(Br)cc2)cc1`, the figure is 2.97 µM.
In the case of `COc1ccc(CNCCCNS(=O)(=O)c2cc(C(F)(F)F)cc(C(F)(F)F)c2)cc1`, the GI50 was found to be 2.5 µM in series [1]; 2.9 µM in [2]; 2.5 µM in [3]; 1.7 µM in [4]; 2.8 µM in series [5]; 2.8 µM in series [7]. The GI50 in series [8] worked out at 1.3 µM; in series [9], 2.4 µM; in series [10], 3 µM; in [11] it was 11 µM. The compound also showed a 50% growth inhibitory concentration (GI50) at 72 h in series [6] of 3.1 µM.
Take `O=S(=O)(NCCCNCc1ccc(C(F)(F)F)cc1)c1cc(C(F)(F)F)cc(C(F)(F)F)c1`: the GI50 in [1] came out at 2.5 µM; in series [2], 2.9 µM; in series [3] it was 1.4 µM; in series [4], 2.8 µM; in [5], 2.7 µM; in series [7], 2 µM. Further, the GI50 turned out to be 1.7 µM in [8], 2 µM in [9], 2.7 µM in [10] and 3.2 µM in series [11]. Besides, in series [6], the GI50 at 72 h turned out to be 3.3 µM.
`O=S(=O)(NCCCCNCc1ccc(Br)cc1)c1cc(C(F)(F)F)cc(C(F)(F)F)c1`: the GI50 in series [1] is 2.1 µM; in [2], 1.6 µM; in series [3] it was 1.5 µM; in series [4] it was 2.1 µM; in series [5] it was 2.2 µM; in series [7] it was 2.9 µM. The GI50 in series [8] is 1.7 µM; in [9], 1.9 µM; in series [10] it was 2 µM; in [11] it was 2.2 µM. In series [6], this compound registered a 50% growth inhibitory concentration (GI50) at 72 h of 3.2 µM.
On to `O=S(=O)(NCCCNCc1ccccc1)c1cc(C(F)(F)F)cc(C(F)(F)F)c1`, for which the GI50 in series [1] was found to be 11 µM; in [2], 15 µM; in [3], 3 µM; in series [4], 4.9 µM; in [5], 12 µM; in [7], 13 µM. The GI50 is 13 µM in series [8], 14 µM in [9], 3.2 µM in series [10] and 16 µM in series [11]. The GI50 at 72 h in [6] is 13 µM.
On to `COc1ccccc1CNCCCNS(=O)(=O)c1cc(C(F)(F)F)cc(C(F)(F)F)c1`, for which the GI50 in series [1] was determined as 3.1 µM; in series [2] it was 12 µM; in series [3], 2.6 µM; in series [4], 1.5 µM; in series [5], 3.6 µM; in series [7], 4.6 µM. For the same compound, the GI50 in series [8] is 1.7 µM; in series [9] it was 6 µM; in series [10], 2.4 µM; in [11] it was 12 µM. This compound also registered a GI50 at 72 h in series [6] of 5.5 µM.
The compound `O=S(=O)(NCCCCCCNCc1ccc(Br)cc1)c1cccc(C(F)(F)F)c1` had a GI50 in series [1] of 5.97 µM.
On the same count and under the same terms, as for `O=S(=O)(NCCCCCCNCc1ccc(Br)cc1)c1ccc2ccsc2c1`, the figure is 6 µM; as for `O=[N+]([O-])c1ccc(S(=O)(=O)NCCCCCCNCc2ccc(Br)cc2)cc1`, 9.8 µM.
On the same count and under the same terms, the same measure for `O=S(=O)(NCCCCCCNCc1ccc(Br)cc1)c1ccccc1Cl`: 13.7 µM; for `O=S(=O)(NCCCCCCNCc1ccc(Br)cc1)c1cc(C(F)(F)F)cc(C(F)(F)F)c1`: 2.97 µM.
For `O=S(=O)(NCCCNCC1COc2ccccc2O1)c1cc(C(F)(F)F)cc(C(F)(F)F)c1` (centres undefined), the GI50 in [1] came to 2.6 µM; in [2], 2.2 µM; in [3] it was 2.5 µM; in series [4], 1.5 µM; in [5], 2.8 µM; in series [7], 2.9 µM. The GI50 in [8] was found to be 1.2 µM; in [9], 2.5 µM; in series [10], 2.7 µM; in [11], 3.4 µM. This compound registered a GI50 at 72 h in series [6] of 3.2 µM.
Turning to `COc1cccc(CNCCCNS(=O)(=O)c2cc(C(F)(F)F)cc(C(F)(F)F)c2)c1`, the GI50 worked out at 3.4 µM in [1]; 10 µM in series [2]; 2.4 µM in series [3]; 1.6 µM in [4]; 4.5 µM in series [5]; 3.8 µM in series [7]. The GI50 in [8] amounted to 1.7 µM; in [9], 6.4 µM; in [10], 2.4 µM; in [11], 10 µM. Further, it took 6.6 µM to inhibit growth in [6] by half (GI50 at 72 h).
The compound `O=S(=O)(NCCCCCCNCc1ccc(Br)cc1)c1c(Cl)cccc1Cl` displayed a GI50 in series [1] of 14.7 µM.
Same read-out and setting: as for `O=S(=O)(NCCCCCCNCc1ccc(Br)cc1)c1ccccc1F`, the figure is 13.3 µM.
On to `Cc1ccc(S(=O)(=O)NCCCCCCNCc2ccc(Br)cc2)cc1`, for which the GI50 in series [1] is 12.3 µM.
The same measure, in the same setting: as for `O=S(=O)(NCCCCCCNCc1ccc(Br)cc1)c1ccc(Cl)cc1`, the figure is 5.9 µM.
Take `O=S(=O)(NCCCNCc1ccc(Cl)c(C(F)(F)F)c1)c1cc(C(F)(F)F)cc(C(F)(F)F)c1`: the GI50 in series [1] came out at 7.4 µM; in series [2], 11 µM; in series [3] it was 3.5 µM; in series [4], 5.9 µM; in series [5], 8.6 µM; in series [7], 9.6 µM. In addition, the GI50 in [8] amounted to 7.8 µM; in series [9], 9.1 µM; in [10] it was 3 µM; in [11], 10 µM. In series [6], this compound came in with a GI50 at 72 h of 7.9 µM.
For `O=S(=O)(NCCCNCc1ccc(Cl)c(Cl)c1)c1cc(C(F)(F)F)cc(C(F)(F)F)c1`, the GI50 in [1] was 2.7 µM; in [2], 4.7 µM; in [3], 2.4 µM; in series [4] it was 1.5 µM; in series [5] it was 2.9 µM; in series [7], 2.8 µM. The 50% growth inhibitory concentration (GI50) in [8] came out at 1.4 µM; in series [9], 1.8 µM; in [10] it was 2.5 µM; in series [11], 5.6 µM. It took 3 µM to inhibit growth in [6] by half (GI50 at 72 h).
The compound `CC(C)c1ccc(S(=O)(=O)NCCCCCCNCc2ccc(Br)cc2)cc1` displayed a GI50 in series [1] of 5.73 µM.

For the origin of these results see ChEMBL document CHEMBL5131478, “3,5-Bis(trifluoromethyl)phenylsulfonamides, a novel pancreatic cancer active lead. Investigation of the terminal aromatic moiety” (Bioorg Med Chem Lett, 2022).
